Experimental data as given in patent publication US20080063628A1, “METHODS TO PROMOTE CELL DIFFERENTIATION” (priority 2006, published 2008).

How the values were obtained:
Test in all cases: 6 hour trichostatin A treatment, gene expression by RT-PCR (Example 10)
Type in all cases: cell-based, human
[1] = tested on: amniotic fluid-derived cell line; settings: for Gata1 gene expression / HNF-3 beta gene expression / Insulin gene expression / Pdx-1 gene expression / sox17 gene expression: 1.25 μM for 6 h then removed
Experimental: (§1) Amniotic fluid derived cells or pancreas-derived cells were seeded into 24-well tissue culture plates at a density of 5000/cm^2 and cultured in AMNIOMAX (Invitrogen) or DMEM with 10% FBS respectively under standard cell culture conditions until confluency was reached. Upon reaching confluency, amniotic fluid derived cells were treated with 1.25 μM trichostatin A and pancreas-derived stromal cells were treated with 5.0 μM trichostatin A. The media was changed 6 hours following the addition of trichostatin A and cultures were maintained for the remainder of the experiment. Several cell lines obtained from amniotic fluid (see Example 14) and pancreas (see Example 13) were tested.
(§2) RNA samples were obtained at the time the trichostatin A was removed and 24 hours from the start of the experiment. The culture media was removed and cells were washed with PBS then collected in RLT Lysis Buffer with β-mercaptoethanol (Qiagen). RNA was purified using the RNeasy Mini Kit (Qiagen) and RNA quantity and quality was determined using a spectrophotometer. cDNA was made using the iScript cDNA synthesis kit (BioRad). Human pancreas cDNA was included as a control. Results were normalized against GAPDH expression levels.
(§3) The expression levels of Sox17, HNF-3 beta, Pdx-1, Insulin, and Gata-1 were analyzed in amniotic-derived cells while the expression levels of glucagon, insulin, PDX-1 and HNF-3 beta were analyzed in pancreas-derived cells. 20 ng of cDNA was used in each RT-PCR reaction, which was performed on the Applied Biosystems 7500, according to the methods described in Example 15. Data was analyzed using the accompanying software.
(§4) Real-time PCR amplifcation and quantitative analysis. Unless otherwise stated, all reagents were purchased from Applied Biosystems. Real-time PCR reactions were performed using the ABI PRISM™ 7500 Sequence Detection System. TAQMAN™ FAST UNIVERSAL PCR MASTER MIX™ (ABI, CA) was used with 20 ng of reverse transcribed RNA in a total reaction volume of 20 μl. Each cDNA sample was run in duplicate to allow correction of pipetting errors. Primers and FAM-labeled TAQMAN™ probes were used at concentrations of 200 nM. The level of expression for each target gene was normalized using the pre-developed Applied Biosystem's human glyceraldehyde-3-phosphate dehydrogenase (GAPDH) endogenous control kit. Primers and probes were designed using either ABI PRISM PRIMER EXPRESS™ software or a pre-developed ABI gene analysis kit. For each gene, either one of the primers or the probe were designed to be exon-boundary spanning. This eliminated the possibility of the primers/probe binding to any genomic DNA present. The primer and probe sets are listed as follows: Pdx-1 (Hs00426216), Insulin (Hs00355773), glucagon (Hs00174967), and FoxA2 (HNF 3-beta) (Hs00232764). The remaining primers were designed using the PRIMERS program (ABI, CA). After an initial 95° C. incubation for 20 sec, samples were cycled 40 times in two stages: a denaturation step at 95° C. for 3 sec, followed by an annealing/extension step at 60° C. for 30 sec.
(§5) For each primer/probe set, a cycle time value was determined as the cycle number at which the fluorescence intensity of the PCR reaction reached a specific value in the middle of the exponential region of amplification. An increase in expression of a gene corresponded to a decrease in the number of cycles required for the fluorescence intensity to reach this value.

[2] = tested on: early passage (P5) pancreatic-derived stromal cell line; settings: for HNF-3 beta gene expression / Insulin gene expression / Pdx-1 gene expression / glucagon gene expression: 5 μM for 6 h then removed
Experimental: as §1, §2, §3, §4, §5

[3] = tested on: late passage (P11) pancreatic-derived stromal cell line; settings: for HNF-3 beta gene expression / Insulin gene expression / Pdx-1 gene expression / glucagon gene expression: 5 μM for 6 h then removed
Experimental: as §1, §2, §3, §4, §5

[4] = tested on: second amniotic fluid-derived cell line; settings: for Gata1 gene expression / HNF-3 beta gene expression / Insulin gene expression / Pdx-1 gene expression / sox17 gene expression: 1.25 μM for 6 h then removed
Experimental: as §1, §2, §3, §4, §5

[5] = 5.0 μM, following 6 h treatment

CC(/C=C/C(=O)NO)=C\[C@@H](C)C(=O)c1ccc(N(C)C)cc1 [trichostatin A]
Gata1 gene expression ([1]; 6 hrs): nd (not detectable at >40 cycles by RT-PCR) | HNF-3 beta gene expression ([1]; 6 hrs): +++ (detectable at less than 35 cycles by RT-PCR with SE less than 0.9) | Insulin gene expression ([1]; 6 hrs): nd (not detectable at >40 cycles by RT-PCR) | Pdx-1 gene expression ([1]; 6 hrs): + (detectable between 35 and 40 cycles by RT-PCR) | sox17 gene expression ([1]; 6 hrs): +++ (detectable at less than 35 cycles by RT-PCR with SE less than 0.9) | Gata1 gene expression ([1]; 24 hrs): nd (not detectable at >40 cycles by RT-PCR) | HNF-3 beta gene expression ([1]; 24 hrs): +++ (detectable at less than 35 cycles by RT-PCR with SE less than 0.9) | Insulin gene expression ([1]; 24 hrs): nd (not detectable at >40 cycles by RT-PCR) | Pdx-1 gene expression ([1]; 24 hrs): nd (not detectable at >40 cycles by RT-PCR) | sox17 gene expression ([1]; 24 hrs): +++ (detectable at less than 35 cycles by RT-PCR with SE less than 0.9) | Pdx-1 RT-PCR detection cycle ([1]; 1.25 μM, after treatment (37 before treatment)): 35 cycles | HNF-3 beta RT-PCR detection cycle ([1]; 1.25 μM, following 6 h treatment): 32 cycles | HNF-3 beta RT-PCR detection cycle ([1]; 1.25 μM, following the wash): 35 cycles | HNF-3 beta gene expression ([2]; 6 hrs): +++ (detectable at less than 35 cycles by RT-PCR with SE less than 0.9) | Insulin gene expression ([2]; 6 hrs): nd (not detectable at >40 cycles by RT-PCR) | Pdx-1 gene expression ([2]; 6 hrs): + (detectable between 35 and 40 cycles by RT-PCR) | glucagon gene expression ([2]; 6 hrs): + (detectable between 35 and 40 cycles by RT-PCR) | HNF-3 beta gene expression ([2]; 24 hrs): nd (not detectable at >40 cycles by RT-PCR) | Insulin gene expression ([2]; 24 hrs): +++ (detectable at less than 35 cycles by RT-PCR with SE less than 0.9) | Pdx-1 gene expression ([2]; 24 hrs): nd (not detectable at >40 cycles by RT-PCR) | glucagon gene expression ([2]; 24 hrs): + (detectable between 35 and 40 cycles by RT-PCR) | Insulin RT-PCR detection cycle ([2]; 5.0 μM, after trichostatin A was removed from the media): 32 cycles | HNF-3 beta RT-PCR detection cycle [2, 5]: 35 cycles | glucagon RT-PCR detection cycle [2, 5]: 37 cycles | Pdx-1 RT-PCR detection cycle ([2]; 5.0 μM, following treatment (38 before treatment)): 35 cycles | HNF-3 beta gene expression ([3]; 6 hrs): + (detectable between 35 and 40 cycles by RT-PCR) | Insulin gene expression ([3]; 6 hrs): nd (not detectable at >40 cycles by RT-PCR) | Pdx-1 gene expression ([3]; 6 hrs): + (detectable between 35 and 40 cycles by RT-PCR) | glucagon gene expression ([3]; 6 hrs): + (detectable between 35 and 40 cycles by RT-PCR) | HNF-3 beta gene expression ([3]; 24 hrs): nd (not detectable at >40 cycles by RT-PCR) | Insulin gene expression ([3]; 24 hrs): nd (not detectable at >40 cycles by RT-PCR) | Pdx-1 gene expression ([3]; 24 hrs): nd (not detectable at >40 cycles by RT-PCR) | glucagon gene expression ([3]; 24 hrs): + (detectable between 35 and 40 cycles by RT-PCR) | HNF-3 beta RT-PCR detection cycle [3, 5]: 36 cycles | Pdx-1 RT-PCR detection cycle [3, 5]: 37 cycles | glucagon RT-PCR detection cycle [3, 5]: 37 cycles | glucagon RT-PCR detection cycle ([3]; 5.0 μM, following the removal): 35 cycles | Gata1 gene expression ([4]; 6 hrs): nd (not detectable at >40 cycles by RT-PCR) | HNF-3 beta gene expression ([4]; 6 hrs): +++ (detectable at less than 35 cycles by RT-PCR with SE less than 0.9) | Insulin gene expression ([4]; 6 hrs): nd (not detectable at >40 cycles by RT-PCR) | Pdx-1 gene expression ([4]; 6 hrs): +++ (detectable at less than 35 cycles by RT-PCR with SE less than 0.9) | sox17 gene expression ([4]; 6 hrs): +++ (detectable at less than 35 cycles by RT-PCR with SE less than 0.9) | Gata1 gene expression ([4]; 24 hrs): nd (not detectable at >40 cycles by RT-PCR) | HNF-3 beta gene expression ([4]; 24 hrs): + (detectable between 35 and 40 cycles by RT-PCR) | Insulin gene expression ([4]; 24 hrs): nd (not detectable at >40 cycles by RT-PCR) | Pdx-1 gene expression ([4]; 24 hrs): nd (not detectable at >40 cycles by RT-PCR) | sox17 gene expression ([4]; 24 hrs): +++ (detectable at less than 35 cycles by RT-PCR with SE less than 0.9) | HNF-3 beta RT-PCR detection cycle ([4]; 1.25 μM, 6 hours of treatment): 31 cycles | Pdx-1 RT-PCR detection cycle ([4]; 1.25 μM, 6 hours of treatment): 35 cycles | HNF-3 beta RT-PCR detection cycle ([4]; 1.25 μM, following removal): 35 cycles
